One test deals with PldA (Pseudomonas aeruginosa, UniProt Q9HYC2). Format: biochemical.
Test [1] addresses recombinant human NAPE-PLD (Homo sapiens, UniProt Q6IQ20). Description: NAPE-PLD activity assay. As to conditions: 20 μM. Format: biochemical.
The target in another test is PLD2 (Homo sapiens, UniProt O14939). The following applies: cited from earlier work.
Test [2] deals with T1, PLD1 (Homo sapiens, UniProt Q13393).
T1 sequence (Q13393 1-1074): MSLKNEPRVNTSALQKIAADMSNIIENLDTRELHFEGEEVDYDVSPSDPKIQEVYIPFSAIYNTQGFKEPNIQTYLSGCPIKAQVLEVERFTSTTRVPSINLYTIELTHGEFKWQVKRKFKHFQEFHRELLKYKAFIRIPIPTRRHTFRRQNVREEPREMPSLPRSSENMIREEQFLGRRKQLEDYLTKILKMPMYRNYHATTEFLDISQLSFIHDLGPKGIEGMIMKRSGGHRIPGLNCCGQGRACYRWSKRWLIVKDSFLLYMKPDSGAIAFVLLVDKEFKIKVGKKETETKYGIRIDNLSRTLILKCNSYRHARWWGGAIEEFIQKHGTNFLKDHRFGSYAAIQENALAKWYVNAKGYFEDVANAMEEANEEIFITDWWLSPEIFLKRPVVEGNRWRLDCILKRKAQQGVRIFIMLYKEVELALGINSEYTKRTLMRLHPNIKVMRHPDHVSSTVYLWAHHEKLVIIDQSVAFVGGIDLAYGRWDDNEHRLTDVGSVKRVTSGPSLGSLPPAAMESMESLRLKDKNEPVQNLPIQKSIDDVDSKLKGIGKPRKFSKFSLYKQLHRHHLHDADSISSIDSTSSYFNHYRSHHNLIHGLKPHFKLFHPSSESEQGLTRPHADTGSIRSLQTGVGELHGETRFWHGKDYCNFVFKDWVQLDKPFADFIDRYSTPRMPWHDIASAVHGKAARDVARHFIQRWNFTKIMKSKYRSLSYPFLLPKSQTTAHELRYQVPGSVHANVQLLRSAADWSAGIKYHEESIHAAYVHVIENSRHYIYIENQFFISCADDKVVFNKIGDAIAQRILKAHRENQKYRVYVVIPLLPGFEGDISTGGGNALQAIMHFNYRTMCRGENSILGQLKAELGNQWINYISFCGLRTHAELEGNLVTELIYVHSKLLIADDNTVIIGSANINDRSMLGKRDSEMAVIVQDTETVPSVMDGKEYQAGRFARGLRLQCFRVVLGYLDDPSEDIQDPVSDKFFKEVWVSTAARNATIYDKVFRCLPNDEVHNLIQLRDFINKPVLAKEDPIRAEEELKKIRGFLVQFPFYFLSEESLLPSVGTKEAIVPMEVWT
As to conditions: cited from earlier work.

Test [3] addresses T1, PLD1. The format is cell-based. The following applies: read-out: mammalian PLD1 IC50.

Each structure is given as a SMILES string.

Broadly, the IC50 is the concentration at which inhibition is half-maximal.

Chain of PldA (Q9HYC2 1-1099): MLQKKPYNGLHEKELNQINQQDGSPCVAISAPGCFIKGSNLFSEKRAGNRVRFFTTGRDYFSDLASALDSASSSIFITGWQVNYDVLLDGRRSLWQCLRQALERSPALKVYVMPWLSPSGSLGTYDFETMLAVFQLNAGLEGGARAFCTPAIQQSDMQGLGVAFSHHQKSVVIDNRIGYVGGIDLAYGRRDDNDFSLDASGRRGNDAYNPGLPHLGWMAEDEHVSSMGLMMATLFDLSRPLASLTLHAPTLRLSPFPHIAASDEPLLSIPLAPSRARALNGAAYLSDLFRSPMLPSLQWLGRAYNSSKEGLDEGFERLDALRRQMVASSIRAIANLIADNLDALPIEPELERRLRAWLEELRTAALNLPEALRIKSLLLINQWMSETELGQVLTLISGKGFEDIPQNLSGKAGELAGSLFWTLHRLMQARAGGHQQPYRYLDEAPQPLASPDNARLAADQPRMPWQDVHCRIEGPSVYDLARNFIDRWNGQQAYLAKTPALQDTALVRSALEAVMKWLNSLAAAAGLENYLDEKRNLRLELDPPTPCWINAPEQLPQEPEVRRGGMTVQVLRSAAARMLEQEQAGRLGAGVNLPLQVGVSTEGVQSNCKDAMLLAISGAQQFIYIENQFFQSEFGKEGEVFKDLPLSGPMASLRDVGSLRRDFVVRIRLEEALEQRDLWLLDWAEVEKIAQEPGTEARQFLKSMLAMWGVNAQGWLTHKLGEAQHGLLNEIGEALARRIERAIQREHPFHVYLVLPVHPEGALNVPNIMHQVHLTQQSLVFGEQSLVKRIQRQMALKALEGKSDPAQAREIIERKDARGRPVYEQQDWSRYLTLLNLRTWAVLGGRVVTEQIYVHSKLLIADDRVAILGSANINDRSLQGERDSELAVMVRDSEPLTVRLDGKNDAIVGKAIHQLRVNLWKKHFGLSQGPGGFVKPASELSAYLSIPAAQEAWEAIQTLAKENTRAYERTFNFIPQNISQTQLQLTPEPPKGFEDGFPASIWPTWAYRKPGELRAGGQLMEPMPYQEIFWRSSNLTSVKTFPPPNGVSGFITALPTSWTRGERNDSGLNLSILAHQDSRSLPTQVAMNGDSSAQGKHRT
Chain of PLD2 (O14939 whole entry): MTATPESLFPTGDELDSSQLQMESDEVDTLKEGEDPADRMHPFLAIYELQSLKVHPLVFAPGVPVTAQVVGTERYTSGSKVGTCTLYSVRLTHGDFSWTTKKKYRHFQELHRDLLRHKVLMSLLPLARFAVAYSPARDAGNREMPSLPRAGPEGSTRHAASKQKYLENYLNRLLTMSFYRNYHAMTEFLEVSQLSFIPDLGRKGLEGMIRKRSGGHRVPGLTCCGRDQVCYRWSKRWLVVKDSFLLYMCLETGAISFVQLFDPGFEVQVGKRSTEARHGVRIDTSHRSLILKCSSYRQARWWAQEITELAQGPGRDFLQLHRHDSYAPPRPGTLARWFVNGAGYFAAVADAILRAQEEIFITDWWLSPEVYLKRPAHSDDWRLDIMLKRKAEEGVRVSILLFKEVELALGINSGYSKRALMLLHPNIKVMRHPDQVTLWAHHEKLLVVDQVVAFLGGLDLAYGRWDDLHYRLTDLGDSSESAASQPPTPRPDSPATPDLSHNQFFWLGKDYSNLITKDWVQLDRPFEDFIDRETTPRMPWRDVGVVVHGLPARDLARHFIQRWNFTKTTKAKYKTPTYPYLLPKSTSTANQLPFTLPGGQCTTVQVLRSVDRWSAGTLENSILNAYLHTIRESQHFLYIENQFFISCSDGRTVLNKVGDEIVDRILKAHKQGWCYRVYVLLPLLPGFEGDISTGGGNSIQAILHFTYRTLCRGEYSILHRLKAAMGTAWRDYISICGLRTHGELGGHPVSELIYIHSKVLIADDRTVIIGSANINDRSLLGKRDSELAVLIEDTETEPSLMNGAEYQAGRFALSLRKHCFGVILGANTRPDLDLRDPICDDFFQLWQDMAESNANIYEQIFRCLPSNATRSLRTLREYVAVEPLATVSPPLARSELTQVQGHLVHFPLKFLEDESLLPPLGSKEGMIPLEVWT
Chain of recombinant human NAPE-PLD (Q6IQ20 whole entry): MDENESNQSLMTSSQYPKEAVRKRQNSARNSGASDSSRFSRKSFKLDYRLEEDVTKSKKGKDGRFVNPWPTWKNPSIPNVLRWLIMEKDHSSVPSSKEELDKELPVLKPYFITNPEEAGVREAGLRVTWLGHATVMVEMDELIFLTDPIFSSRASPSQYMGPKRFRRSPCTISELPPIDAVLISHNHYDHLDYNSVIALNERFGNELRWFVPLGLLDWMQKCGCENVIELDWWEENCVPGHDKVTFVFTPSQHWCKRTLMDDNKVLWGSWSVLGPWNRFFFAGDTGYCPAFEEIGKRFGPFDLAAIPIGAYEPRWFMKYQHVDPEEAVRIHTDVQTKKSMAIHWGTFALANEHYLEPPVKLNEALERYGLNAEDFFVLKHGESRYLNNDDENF

On to `O=C(c1ccc(OCCN2CCCCC2)cc1)c1c(-c2ccc(O)cc2)sc2cc(O)ccc12` [Compound 7, raloxifene], for which the “fold more potent at PldA than inhibitors 2, 3 and 1” value at PldA is reported as 5- to 10 fold. For the same molecule, in test [1], the “inhibition of NAPE-PLD activity, single point” value was “not to inhibit”.

For `CC/C(=C(\c1ccccc1)c1ccc(OCCN(C)C)cc1)c1ccccc1` [Compound 8, tamoxifen], the “PLD2 IC50” value at PLD2 was “stimulated”. In addition, the “PLD1 IC50” value at PLD1 [2] is listed as “no effect”. Moreover, at PLD1 [3], the IC50 was greater than 20 µM.

The values above are taken from article PMC4336625 (ACS Chemical Biology, 2014).
